In brackets after ≈: the same amount, converted by molar mass.
Columns and labels:
physchem [1] = test: physchem
[2] = Solubility of various drugs: effect of CMC in aqueous HPβCD solutions (Example 1); settings: for S4 /S3: 0.25% CMC + 10% HPβCD vs 10% HPβCD
[3] = Effect of previously prepared solid HPβCD-polymer complexing agent on solubility (Example 13); assay type: physicochemical
Procedure: The resultant solutions were heated in sealed containers to 120° C. and maintained at that temperature for 30 minutes, then were lyophilized. The solids thus obtained were ground with a mortar and pestle.
The solid cyclodextrin/polymer products were reconstituted with water to afford solutions containing 9.88% (w/v) HPβCD and 0.12% (w/v) PVP, 0.12% (w/v) or CMC 0.12% (w/v) HPMC. The solubilities (S) of three drugs in these solutions and in an aqueous solution containing 10% (w/v) HPβCD without added polymer were then determined as follows:
An excess amount of each drug was added to each of the four cyclodextrin solutions and the solutions were sonicated in an ultrasonic bath for 3 hours, then allowed to equilibrate for 60 hours at room temperature (23° C.). […] However, by separate preparation of the cyclodextrin/polymer complexing agent as illustrated here, one can readily avoid heating drugs which are unstable at elevated temperature.

physchem [4] = test: physchem; remark: listed apart in the source
physchem [5] = test: physchem; remark: listed apart in the source
Procedure: An excess amount of the compound to be tested was added to each solvent and the suspensions which formed were heated in sealed containers to 120° C. The solubility of salicylic acid was determined in acidic (HCl) solution.

[6] = Effect of PVP on the solubilization of drugs in aqueous HPβCD solutions (Example 7); settings: for S4 /S3: with vs without 0.25% PVP
[7] = HPβCD with CMC / HPβCD without polymer (S6)
[8] = HPβCD with HPMC / HPβCD without polymer (S8)
[9] = HPβCD with PVP / HPβCD without polymer (S7)

| SMILES | solubility (physchem [1]; 0.25% cmc + 10% hpbetacd) | solubility (physchem [1]; aqueous 0.25% cmc) | solubility (physchem [1]; aqueous 10% hpbetacd) | solubility (physchem [1]; water) | S4 /S3 [2] | solubility at 72 h (physchem [4]; 0.25% pvp, 10% hpβcd) | solubility at 72 h (physchem [4]; 10% hpβcd ms 0.7) | solubility (physchem [5]; 0.25% hpmc + 10% hpβcd) | solubility (physchem [5]; 0.25% pvp + 10% hpβcd) | solubility (physchem [5]; aqueous 0.25% cmc, 10% hpβcd) | solubility (physchem [5]; aqueous 10% hpβcd) | also measured |
| --- | --- | --- | --- | --- | --- | --- | --- | --- | --- | --- | --- | --- |
| C[C@]12C=CC(=O)C=C1CC[C@@H]1[C@@H]2[C@@H](O)C[C@@]2(C)[C@H]1CC[C@]2(O)C(=O)CO [Prednisolone, prednisolone] | 15300 µg/mL | 530 µg/mL (≈ 1.47 mM) | 13600 µg/mL (≈ 37.7 mM) | 380 µg/mL (≈ 1.05 mM) | 1.13 |  |  |  |  |  |  |  |
| Clc1ccc(COC(Cn2ccnc2)c2ccc(Cl)cc2Cl)cc1 (stereo not shown) [Econazole, econazole] | 7410 µg/mL | 600 µg/mL (≈ 1.57 mM) | 4860 µg/mL (≈ 12.7 mM) | 570 µg/mL (≈ 1.49 mM) |  | 5650 µg/mL (≈ 14.8 mM) | 5220 µg/mL (≈ 13.7 mM) |  |  |  |  | solubility ([3]; 9.88% hpbetacd + 0.12% cmc, 9.88% (w/v) HPβCD and 0.12% (w/v) CMC, read-out: S3 solubility): 5200 µg/mL; solubility ([3]; 9.88% hpbetacd + 0.12% hpmc, 9.88% (w/v) HPβCD and 0.12% (w/v) HPMC, read-out: S4 solubility): 6320 µg/mL; solubility ([3]; 9.88% hpbetacd + 0.12% pvp, 9.88% (w/v) HPβCD and 0.12% (w/v) PVP, read-out: S2 solubility): 5570 µg/mL; solubility ([3]; 10% hpbetacd, 10% (w/v) HPβCD, read-out: S1 solubility): 4860 µg/mL (≈ 12.7 mM); solubility at 72 h (physchem [4]; aqueous 0.25% pvp): 640 µg/mL (≈ 1.68 mM); solubility at 72 h (physchem [4]; water): 570 µg/mL (≈ 1.49 mM) |
| CN(C)c1ccc(N=Nc2ccccc2)cc1 [Methylyellow] |  |  |  |  |  |  |  | 250 µg/mL | 240 µg/mL | 240 µg/mL (≈ 1.07 mM) | 230 µg/mL (≈ 1.02 mM) | solubility ratio (physchem [5]; [7]): 1.04; solubility ratio (physchem [5]; [8]): 1.09; solubility ratio (physchem [5]; [9]): 1.04; solubility (physchem [5]; aqueous 0.25% cmc): 0.85 µg/mL (≈ 0.00377 mM); solubility (physchem [5]; aqueous 0.25% hpmc): 0.75 µg/mL (≈ 0.00333 mM); solubility (physchem [5]; aqueous 0.25% pvp): 0.85 µg/mL (≈ 0.00377 mM); solubility (physchem [5]; water): 0.64 µg/mL (≈ 0.00284 mM) |
| CC12CCC(CC1=O)C2(C)C (stereo not shown) [Camphor] |  |  |  |  |  |  |  | 13300 µg/mL | 13700 µg/mL | 13800 µg/mL (≈ 90.6 mM) | 12700 µg/mL (≈ 83.4 mM) | solubility (physchem [5]; aqueous 0.25% cmc): 2010 µg/mL (≈ 13.2 mM); solubility (physchem [5]; aqueous 0.25% hpmc): 1920 µg/mL (≈ 12.6 mM); solubility (physchem [5]; aqueous 0.25% pvp): 2200 µg/mL (≈ 14.5 mM); solubility (physchem [5]; water): 1840 µg/mL (≈ 12.1 mM) |
| Clc1ccccc1C(c1ccccc1)(c1ccccc1)n1ccnc1 [Clotrimazole, clotrimazole] | 1400 µg/mL |  | 1200 µg/mL (≈ 3.48 mM) |  |  | 1800 µg/mL (≈ 5.22 mM) | 1200 µg/mL (≈ 3.48 mM) |  |  |  |  |  |
| C=C1CC[C@H](O)C/C1=C/C=C1\CCC[C@]2(C)[C@@H]([C@H](C)CCCC(C)C)CC[C@@H]12 [Cholecalciferol] |  |  |  |  |  |  |  | 690 µg/mL | 760 µg/mL | 720 µg/mL (≈ 1.87 mM) | 610 µg/mL (≈ 1.59 mM) | solubility ratio (physchem [5]; [7]): 1.18; solubility ratio (physchem [5]; [8]): 1.14; solubility ratio (physchem [5]; [9]): 1.25 |
| CC(=O)[C@H]1CC[C@H]2[C@@H]3CCC4=CC(=O)CC[C@]4(C)[C@H]3CC[C@]12C [Progesterone, progesterone] |  |  |  |  | 1.52 |  |  |  |  |  |  | solubility ([2]; 0.25% cmc + 10% hpbetacd): 6110 µg/mL; solubility ([2]; aqueous 10% hpbetacd): 4030 µg/mL (≈ 12.8 mM); solubility at 72 h ([6]; 0.25% pvp, 10% hpβcd): 5710 µg/mL (≈ 18.2 mM); solubility at 72 h ([6]; 10% hpβcd ms 0.7): 4760 µg/mL (≈ 15.1 mM); S4 /S3 [6]: 1.20 |
| Cc1nnc2n1-c1ccc(Cl)cc1C(c1ccccc1)=NC2 [Alprazolam] | 1550 µg/mL | 180 µg/mL (≈ 0.583 mM) | 1280 µg/mL (≈ 4.15 mM) | 70 µg/mL (≈ 0.227 mM) |  |  |  |  |  |  |  |  |
| CCOc1ccc2nc(S(N)(=O)=O)sc2c1 [Ethoxyzolamide] | 1660 µg/mL | 70 µg/mL (≈ 0.271 mM) | 1190 µg/mL (≈ 4.61 mM) | 40 µg/mL (≈ 0.155 mM) | 1.39 | 2720 µg/mL (≈ 10.5 mM) | 1360 µg/mL (≈ 5.26 mM) |  |  |  |  | solubility at 72 h (physchem [4]; aqueous 0.25% pvp): 60 µg/mL (≈ 0.232 mM); solubility at 72 h (physchem [4]; water): 40 µg/mL (≈ 0.155 mM); S4 /S3 [6]: 2.00 |
